Assay: Shell wheel test (corrosion inhibition)
Conditions: 50 ppm of a 24% solution of the inhibitor; salt water/petroleum 9:1, 5% NaCl, pH 3.5; 40 rpm, 70° C., 24 hours; from decrease in coupon mass vs blank
Description: The compounds according to the invention were tested as corrosion inhibitors in the Shell wheel test. Coupons of C steel (DIN 1.1203 with 15 cm^2 surface area) were immersed in a salt water/petroleum mixture (9:1, 5% strength NaCl solution adjusted to pH 3.5 with acetic acid) and exposed to this medium at a speed of 40 rpm at 70° C. for 24 hours. The inhibitor dose was 50 ppm of a 24% solution of the inhibitor. The protection values were calculated from the decrease in the mass of the coupons, based on a blank value.

For `CCCCCCCC/C=C\CCCCCCCC(=O)NC(CCSC)C(=O)[O-].[K+]` (racemic) [Example 2, N-Oleoyl-DL-methionine Potassium Salt], which ø protection % is on record?
Its ø protection % is 69%.
